Measurements as given in US6638945B1, “Quinoline derivatives as inhibitors of MEK enzymes” (AstraZeneca AB, priority 1999, dated 2003).

Molecular target: human p45MEK1 (GST-MEK) (Homo sapiens, UniProt Q02750)
Test: Assay for inhibitors of the MAP kinase pathway (coupled GST-MEK/GST-MAPK/MBP 33P assay)
Assay type: biochemical
Conditions: GST-MEK activated by c-raf, 33P incorporation into myelin basic protein
Method: Assay for inhibitors of the MAP kinase pathway
To evaluate inhibitors of the MAPK pathway a coupled assay was carried out which measures phosphorylation of serine/threonine residues present in the substrate in the presence or absence of inhibitor. Recombinant glutathione S-transferase fusion protein containing human p45MEK1 (GST-MEK) was activated by c-raf (Sf9 insect cell lysate from triple baculoviral infection with c-raf/ras/lck) and used for the assay. Active GST-MEK was first used to activate a recombinant glutathione S-transferase fusion protein containing p44MAP kinase (GST-MAPK) in the presence of ATP and Mg^2+ for 60 min at room temperature in the presence or absence of potential inhibitors. The activated GST-MAPK was then incubated with myelin basic protein (MBP) as substrate for 10 min at room temperature in the presence of ATP, Mg^2+ and ^33P-ATP. The reaction was stropped by addition of 20% v/v phosphoric acid. Incorporation of ^33P into the myelin basic protein was determined by capture of the substrate on a filter mat, washing and counting using scintillation methods. The extent of inhibition was determined by comparison with untreated controls.
The final assay solution contained 10 mM Tris, pH 7.5, 0.05 mM EGTA, 8.33 μM [γ^33P]ATP, 8.33 mM Mg(OAc)2, 0.5 mM sodium orthovanadate, 0.05% w/v BSA, 6.5 ng GST-MEK, 1 μg GST-MAPK and 16.5 μg MBP in a reaction volume of 60 μl.

Sequence of human p45MEK1 (GST-MEK) (Q02750 whole entry): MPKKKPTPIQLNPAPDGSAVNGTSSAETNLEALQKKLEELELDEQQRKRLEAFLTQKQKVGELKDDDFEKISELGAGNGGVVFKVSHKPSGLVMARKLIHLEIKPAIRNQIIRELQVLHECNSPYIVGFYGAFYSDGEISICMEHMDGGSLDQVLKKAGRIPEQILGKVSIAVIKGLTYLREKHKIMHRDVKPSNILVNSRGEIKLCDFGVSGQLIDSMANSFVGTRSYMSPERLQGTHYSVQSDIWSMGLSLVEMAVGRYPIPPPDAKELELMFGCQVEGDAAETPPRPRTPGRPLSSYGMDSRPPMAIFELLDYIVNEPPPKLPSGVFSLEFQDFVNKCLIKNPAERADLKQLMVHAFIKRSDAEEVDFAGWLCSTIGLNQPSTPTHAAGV

## COc1cc2ncc(F)c(Nc3ccc(Oc4ccccc4)cc3)c2cc1OC [Compound No 5]
  IC50: 550 nM
